Where two headings read alike, the source gives them in different places.
Experiments:
[1] = test system: Mitochondrial toxicity (Glu/Gal); assay: Mitochondrial toxicity (Glu/Gal) assay; format: cell-based; set-up: key to Score: “negative” means that in the test, it was found to have low mitotoxicity (and hence no mitotoxicity alerts); “positive” means that there were some mitotoxicity alerts; “inconclusive” means that no accurate conclusion could be drawn; settings: for Score: mitotoxicity score; for Δ IC50,glu/IC50,gal: ratio glu/gal
Description: The compounds of the invention/examples may have advantages associated with in vitro potency, kill kinetics (i.e. bactericidal effect) in vitro, PK properties, food effect, safety/toxicity (including liver toxicity, coagulation, 5-LO oxygenase), metabolic stability, Ames II negativity, MNT negativity, aqueous based solubility (and ability to formulate) and/or cardiovascular effect e.g. on animals (e.g. anesthetized guinea pig). The data below that was generated/calculated may be obtained using standard methods/assays, for instance that are available in the literature or which may be performed by a supplier (e.g. Microsomal Stability Assay—Cyprotex, Mitochondrial toxicity (Glu/Gal) assay—Cyprotex, as well as literature CYP cocktail inhibition assays).

[2] = test system: Mycobacterium tuberculosis strain H37Rv ΔctaE-ΔqcrCAB; assay: microbe, parasite or virus in culture; format: cell-based; settings: 240 h
[3] = test system: Mycobacterium tuberculosis (strain H37Ra), cyt bd; settings: Mtb H37Ra; for (i) % OCR after cyt bd inhibitor: test compound 10 μM added after Compound X 0.9 μM; for (ii) % OCR after cccp: test compound 10 μM after Compound X 0.9 μM, then CCCP 1 μM
[4] = galactose medium, read-out: IC50, gal
[5] = glucose medium, read-out: IC50, glu

Cc1c(-c2nc3ccc(CN4CCC(C(F)(F)F)CC4)cn3n2)[nH]c2ccccc2c1=O [Compound 8]
IC50 [1, 4]: 180 µM | IC50 [1, 5]: 163 µM | Score [1]: negative | Δ IC50,glu/IC50,gal [1]: [x]0.91 | IC50 [2]: 3.7 µM | (i) % OCR after cyt bd inhibitor [3]: 82.67% | (ii) % OCR after cccp [3]: 59.43%

Cc1c(-c2nc3ccc(N4CCC(OC(F)(F)F)CC4)cn3n2)[nH]c2ccccc2c1=O [Compound 13]
IC50 [1, 4]: 141 µM | IC50 [1, 5]: 200 µM | Score [1]: negative | Δ IC50,glu/IC50,gal [1]: [x]1.42 | IC50 [2]: 4.12 µM | (i) % OCR after cyt bd inhibitor [3]: 61.74% | (ii) % OCR after cccp [3]: 83.9%

Cc1c(-c2nc3ccc(-c4cc(C(F)(F)F)nn4C)cn3n2)[nH]c2ccccc2c1=O [Compound 15]
IC50 [1, 4]: 200 µM | IC50 [1, 5]: 44.3 µM | Score [1]: negative | Δ IC50,glu/IC50,gal [1]: [x]0.22 | IC50 [2]: 57 µM | (i) % OCR after cyt bd inhibitor [3]: 91.58% | (ii) % OCR after cccp [3]: 94.75%

Cc1c(-c2nc3ccc(N4CCN(CC(F)(F)F)CC4)cn3n2)[nH]c2ccccc2c1=O [Compound 16]
IC50 [1, 4]: 200 µM | IC50 [1, 5]: 200 µM | Score [1]: negative | Δ IC50,glu/IC50,gal [1]: [x]0 | IC50 [2]: 1.17 µM | (i) % OCR after cyt bd inhibitor [3]: 80.34% | (ii) % OCR after cccp [3]: 95.29%

Cc1c(-c2nc3ccc(CC(F)(F)F)cn3n2)[nH]c2ccccc2c1=O [Compound 20]
IC50 [1, 4]: 125 µM | IC50 [1, 5]: 176 µM | Score [1]: negative | Δ IC50,glu/IC50,gal [1]: [x]1.41 | IC50 [2]: 2.17 µM | (i) % OCR after cyt bd inhibitor [3]: 78.5% | (ii) % OCR after cccp [3]: 102.86%

Cc1c(-c2nc3cc(C(F)(F)F)c(-c4ccccc4)cn3n2)[nH]c2ccccc2c1=O [Compound 21]
IC50 [1, 4]: 50 µM | IC50 [1, 5]: 50 µM | Score [1]: negative | Δ IC50,glu/IC50,gal [1]: [x]0 | IC50 [2]: 11.4 µM | (i) % OCR after cyt bd inhibitor [3]: 81.6% | (ii) % OCR after cccp [3]: 103.4%

Cc1c(-c2cn3cc(-c4cccc(OC(F)(F)F)c4)ccc3n2)[nH]c2ccccc2c1=O [Compound 23]
IC50 [1, 4]: 200 µM | IC50 [1, 5]: 200 µM | Score [1]: negative | IC50 [2]: > 100 µM | (i) % OCR after cyt bd inhibitor [3]: 97.51% | (ii) % OCR after cccp [3]: 110.11%

Cc1c(-c2nc3ccc(-c4nc(C(F)(F)F)no4)cn3n2)[nH]c2ccccc2c1=O [Compound 24]
IC50 [1, 4]: 20 µM | IC50 [1, 5]: 20 µM | Score [1]: negative | Δ IC50,glu/IC50,gal [1]: [x]0 | IC50 [2]: 2.95 µM | (i) % OCR after cyt bd inhibitor [3]: 99.13% | (ii) % OCR after cccp [3]: 113.29%

CNC(=O)c1c(-c2nc3ccc(-c4nc(C(F)(F)F)cs4)cn3n2)[nH]c2ccccc2c1=O [Compound 27]
IC50 [1, 4]: 100 µM | IC50 [1, 5]: 100 µM | Score [1]: negative | Δ IC50,glu/IC50,gal [1]: [x]0 | IC50 [2]: > 50 µM | (i) % OCR after cyt bd inhibitor [3]: 111.36% | (ii) % OCR after cccp [3]: 117.59%

Cc1c(-c2nc3cc(-c4cccc(OC(F)(F)F)c4)ccn3n2)[nH]c2ccccc2c1=O [Compound 28]
IC50 [1, 4]: 58.7 µM | IC50 [1, 5]: 100 µM | Score [1]: negative | Δ IC50,glu/IC50,gal [1]: [x]1.7 | IC50 [2]: 10 µM | (i) % OCR after cyt bd inhibitor [3]: 123.3% | (ii) % OCR after cccp [3]: 117.7%

Cc1c(-c2nc3ccc(OC(F)(F)F)cn3n2)[nH]c2ccccc2c1=O [Compound 30]
IC50 [1, 4]: 100 µM | IC50 [1, 5]: 100 µM | Score [1]: negative | Δ IC50,glu/IC50,gal [1]: [x]0 | IC50 [2]: 2.92 µM | (i) % OCR after cyt bd inhibitor [3]: 93.8% | (ii) % OCR after cccp [3]: 120.2%

CN(C)C(=O)c1c(-c2nc3ccc(-c4ccc(OC(F)(F)F)cc4)cn3n2)[nH]c2ccccc2c1=O [Compound 31]
IC50 [1, 4]: 76 µM | IC50 [1, 5]: 200 µM | Score [1]: inconclusive | Δ IC50,glu/IC50,gal [1]: [x]2.63 | IC50 [2]: > 50 µM | (i) % OCR after cyt bd inhibitor [3]: 68.97% | (ii) % OCR after cccp [3]: 120.39%

Cc1c(-c2nc3cc(Br)ccn3n2)[nH]c2ccccc2c1=O [Compound 39]
IC50 [1, 4]: 100 µM | IC50 [1, 5]: 100 µM | Score [1]: negative | Δ IC50,glu/IC50,gal [1]: [x]0 | IC50 [2]: > 100 µM | (i) % OCR after cyt bd inhibitor [3]: 110.6% | (ii) % OCR after cccp [3]: 133.8%

COc1cc2nc(-c3[nH]c4ccccc4c(=O)c3C)nn2cc1F [Compound 40]
IC50 [1, 4]: 200 µM | IC50 [1, 5]: 200 µM | Score [1]: negative | Δ IC50,glu/IC50,gal [1]: [x]0 | IC50 [2]: > 100 µM | (i) % OCR after cyt bd inhibitor [3]: 95.33% | (ii) % OCR after cccp [3]: 134.33%

O=c1c(Br)c(-c2nc3ccc(-c4ccc(OC(F)(F)F)cc4)cn3n2)[nH]c2ccccc12 [Compound 41]
IC50 [1, 4]: 54.7 µM | IC50 [1, 5]: 53.9 µM | Score [1]: negative | Δ IC50,glu/IC50,gal [1]: [x]0.99 | IC50 [2]: 33.9 µM | (i) % OCR after cyt bd inhibitor [3]: 84.09% | (ii) % OCR after cccp [3]: 137.15%

Cc1c(-c2cn3ccc(-c4ccc(OC(F)(F)F)cc4)cc3n2)[nH]c2ccccc2c1=O [Compound 42]
IC50 [1, 4]: 200 µM | IC50 [1, 5]: 200 µM | Score [1]: negative | IC50 [2]: 30.7 µM | (i) % OCR after cyt bd inhibitor [3]: 80.1% | (ii) % OCR after cccp [3]: 137.9%

COc1ccc2[nH]c(-c3nc4ccc(-c5ccc(OC(F)(F)F)cc5)cn4n3)c(C)c(=O)c2c1 [Compound 43]
IC50 [1, 4]: 10.6 µM | IC50 [1, 5]: 26.3 µM | Score [1]: inconclusive | Δ IC50,glu/IC50,gal [1]: [x]2.48 | IC50 [2]: > 100 µM | (i) % OCR after cyt bd inhibitor [3]: 109.2% | (ii) % OCR after cccp [3]: 138%

Cc1c(-c2nc3ccc(-c4cnc(C(F)(F)F)s4)cn3n2)[nH]c2ccccc2c1=O [Compound 45]
IC50 [1, 4]: 20 µM | IC50 [1, 5]: 20 µM | Score [1]: negative | Δ IC50,glu/IC50,gal [1]: [x]0 | IC50 [2]: 5.96 µM | (i) % OCR after cyt bd inhibitor [3]: 94.41% | (ii) % OCR after cccp [3]: 138.84%

Cc1c(-c2nc3cc(C(F)(F)F)c(Br)cn3n2)[nH]c2ccccc2c1=O [Compound 46]
IC50 [1, 4]: 100 µM | IC50 [1, 5]: 100 µM | Score [1]: negative | Δ IC50,glu/IC50,gal [1]: [x]0 | IC50 [2]: > 50 µM | (i) % OCR after cyt bd inhibitor [3]: 91.4% | (ii) % OCR after cccp [3]: 140.4%

Cc1c(-c2nc3ccc(Br)cn3n2)[nH]c2c(F)cc(F)cc2c1=O [Compound 57]
IC50 [1, 4]: 100 µM | IC50 [1, 5]: 100 µM | Score [1]: negative | Δ IC50,glu/IC50,gal [1]: [x]0 | IC50 [2]: > 50 µM | (i) % OCR after cyt bd inhibitor [3]: 102% | (ii) % OCR after cccp [3]: 149.2%

Cc1c(-c2nc3ccc(-c4c[nH]nn4)cn3n2)[nH]c2ccccc2c1=O [Compound 60]
IC50 [1, 4]: 100 µM | IC50 [1, 5]: 100 µM | Score [1]: negative | Δ IC50,glu/IC50,gal [1]: [x]0 | IC50 [2]: > 50 µM | (i) % OCR after cyt bd inhibitor [3]: 114.505% | (ii) % OCR after cccp [3]: 155.065%

O=c1cc(-c2nc3ccc(-c4ccc(OC(F)(F)F)cc4)cn3n2)[nH]c2ccccc12 [Compound 65]
IC50 [1, 4]: 20 µM | IC50 [1, 5]: 20 µM | Score [1]: negative | Δ IC50,glu/IC50,gal [1]: [x]0 | IC50 [2]: > 10 µM | (i) % OCR after cyt bd inhibitor [3]: 99.86% | (ii) % OCR after cccp [3]: 158.97%

Reference: patent publication US20220389008A1, “4-QUINOLINONE ANTIBACTERIAL COMPOUNDS” (Janssen Sciences Ireland Unlimited Company, priority 2019, published 2022)
